From patent US20220381657A1, “METHOD FOR PREPARING BIOLOGICAL MATERIAL HAVING EXCELLENT LIGHT-TRANSMITTING PROPERTY” (RIKEN, priority 2016, published 2022)
Entries after “also recorded” stand apart in the source; their conditions may differ. Like-named read-outs stand apart in the source and are kept apart here.

Columns and labels:
[1] = molecular target: EGFP (Aequorea victoria, UniProt P42212, F64L/H231L/S65T); type: biochemical; details: for 2nd quenching assay EGFP fluorescence: Table 3; for retention of fluorescence of a fluorescent protein: stated in the description
Method: (FIG. 7). […] A mouse hemisphere was treated with use of each 10 wt % chemical solution at 37° C. for 3 days, and was washed with PBS. Subsequently, the mouse hemisphere was subjected to refractive index adjustment with CUBIC-2A.

[2] = tested on: Serius
[3] = Refractive index of high-concentration aqueous solution; type: physicochemical
Source text: (§1) The refractive index of an aqueous solution is commonly known to increase in a solute concentration-dependent manner, and the refractive index of a reagent per unit weight of the reagent varies among individual reagents. Accordingly, two properties are required in order to prepare a high refractive index aqueous solution: (1) an extremely high water-solubility and (2) a […] which allows achieving a high refractive index in a low-concentration aqueous solution.

[4] = tested on: bovine coagulated blood; experiment: Decoloring screening: heme eluted from bovine coagulated blood (OD420-OD700); details: decolorization; for 700 nm calibrated 420 nm Average: OD420 calibrated by OD700; for integrated value 500-700 nm Average: integrated absorbance 500-700 nm
[5] = tested on: mouse spleen; experiment: Decoloring of mouse spleen (OD420 of supernatant, transmissive image); details: 10 wt % solution, 37° C. overnight
[6] = 1st RI evaluation assay: refractive index at 589 nm of 10 wt % aqueous solution; type: physicochemical; details: Table 3
Source text: as §1

[7] = for 400 nm: OD at 400 nm of the chemical
[8] = tested on: mouse hemisphere; experiment: Delipidation and clearing of mouse hemisphere (transmittance, phospholipid and cholesterol content)
Method: Subsequently, the delipidation efficiency of the series of compounds in mammalian tissue was examined. […] The transmittance of the brain tissue was measured, and then the brain tissue was washed with PBS and was disrupted. […] It was thus shown that the above basic chemicals and some neutral chemicals were better than the detergents from the viewpoint of permeability with respect to tissue. […] Subsequently, the mouse hemisphere was subjected to refractive index adjustment with CUBIC-2A. […] Accordingly, #0414 (N-butyldiethanolamine) was selected as a highly-efficient delipidation chemical.

[9] = tested on: fixed brain tissue suspension; experiment: 1st delipidation assay: solubilization of fixed brain tissue suspension, turbidity at 600 nm; parameters: species or system mice; details: Table 1; 10 wt % chemical, fixed mouse brain suspension, 37° C. overnight; PBS = 1.000
Method: Specifically, brains taken out of mice were sheared with a utility knife and then were disrupted by ultrasonication. To each of the resultant suspensions, an equal volume of 8% PFA solution was added to perform fixation at 4° C. for 1 hour. The resultant mixture was centrifuged to remove the supernatant, and the fixed brain tissue was washed with PBS for 3 times. PBS was added so as to obtain 2 mL of a fixed brain tissue suspension per brain. The fixed brain tissue suspension was diluted by 3.5 folds. To 20 μL of the resultant suspension, 130 μL of each 10 wt % chemical was added and was shaken at 37° C. overnight. Thus obtained mixed solutions were subjected to absorbance (turbidity) measurement at 600 nm. It is expected that a chemical solution which reduces the turbidity of a fixed brain suspension allows reducing light scattering by solubilizing lipids, which act as a scattering factor, in the brain tissue.

[10] = tested on: mouse brain; experiment: Swelling and clearing of delipidated mouse brain; details: CUBIC-1 delipidated brain, shaken 3 days
[11] = Table 3, chemical conc. 70 wt %

Cc1cc(=O)n(-c2ccccc2)n1C [#0640, 2,3-Dimethyl-1-phenyl-5-pyrazolone]
2nd quenching assay EGFP fluorescence [1]: quench free | retention of fluorescence of a fluorescent protein [1]: allowing retention of fluorescence of a fluorescent protein | Fluorescence quench Average [2]: 0.84 | RI [3]: 1.4966 | 700 nm calibrated 420 nm Average [4]: 1.22 | integrated value 500-700 nm Average [4]: 0.93

Cn1ccnc1 [1-methylimidazole]
mouse spleen decoloring activity [5]: equivalent decoloring activity

CNC(=S)NC [#0637, 1,3-Dimethyl-thiourea]
1st RI evaluation assay RI of 10% chemical [6]: 1.3555 | pH (Table 3): 6.8 | OD400 ([7]; Table 3): 0.049

CCn1ccnc1 [#0938, 1-ethylimidazole]
retention of fluorescence of a fluorescent protein [1]: allows fluorescence of a fluorescent protein to be retained | mouse spleen decoloring activity [5]: highest | pH ([…]): 12.1 | 400 nm [7]: 0.053 | Fluorescence quench Average ([2]; relative fluorescence): 0.80 | 700 nm calibrated 420 nm Average [4]: 6.19 | integrated value 500-700 nm Average [4]: 3.41

CNC(=O)c1cccnc1 [#1283, N-Methyl- nicotinamide]
2nd quenching assay EGFP fluorescence [1]: quench free | retention of fluorescence of a fluorescent protein [1]: allowing retention of fluorescence of a fluorescent protein; also recorded: allows fluorescence of a fluorescent protein to be retained | pH (Table 3): 10.7 | pH ([…]): 10.7 | 400 nm [7]: 0.063 | OD400 ([7]; Table 3): 0.063 | Fluorescence quench Average ([2]; relative fluorescence): 0.71 | RI [3, 11]: 1.4902 | 700 nm calibrated 420 nm Average [4]: 2.98 | integrated value 500-700 nm Average [4]: 2.81

CCCCN(CCO)CCO [#0414, N-Butyldiethanolamine]
pH (Table 1): 12.7 | pH ([…]): 12.7 | organ transparency ([8]; #0414 versus #0389, basic chemicals): superiority | 400 nm [7]: 0.05 | OD400 ([7]; Table 1): 0.05 | Fluorescence quench Average ([2]; relative fluorescence): 0.70 | 700 nm calibrated 420 nm Average [4]: 1.30 | integrated value 500-700 nm Average [4]: 1.45 | 1st delipidation assay Relative OD600 [9]: 0.261

CN(C)C(=O)c1ccccc1 [#0788, N,N- Dimethyl- benzamide]
2nd quenching assay EGFP fluorescence [1]: quench free | retention of fluorescence of a fluorescent protein [1]: allowing retention of fluorescence of a fluorescent protein | pH (Table 3): 10.7 | pH ([…]): 10.7 | 400 nm [7]: 0.049 | OD400 ([7]; Table 3): 0.049 | Fluorescence quench Average ([2]; relative fluorescence): 0.76 | RI [3, 11]: 1.4833 | 700 nm calibrated 420 nm Average [4]: 1.26 | integrated value 500-700 nm Average [4]: 1.08

OCCNCc1ccccc1 [#0389, N-Benzyl- ethanolamine]
2nd quenching assay EGFP fluorescence [1]: quench free | retention of fluorescence of a fluorescent protein [1]: allowing retention of fluorescence of a fluorescent protein | pH (Table 3): 10.9 | pH ([…]): 10.9 | 400 nm [7]: 0.063 | OD400 ([7]; Table 3): 0.063 | Fluorescence quench Average ([2]; relative fluorescence): 0.57 | RI [3, 11]: 1.4814 | 700 nm calibrated 420 nm Average [4]: 2.73 | integrated value 500-700 nm Average [4]: 2.42

c1c[nH]cn1 [#1352, imidazole]
swelling of delipidated mouse brain [10]: high-degree of swelling

CCCCC(O)CO (stereo not drawn) [#1051, 1,2-Hexanediol]
pH (Table 1): 9.3 | degree of delipidation and clearing of mouse hemisphere ([8]; 10 wt % chemical, 37° C., 3 days, then CUBIC-2A, compared with detergents #1035, #1455, #1460, Triton X-100): higher degrees of delipidation and clearing | OD400 ([7]; Table 1): 0.048 | 1st delipidation assay Relative OD600 [9]: 0.300

C[N+](C)(Cc1ccccc1)c1ccccc1.[Cl-] [#0450, Benzyl- dimethyl- phenyl- ammonium chloride]
2nd quenching assay EGFP fluorescence [1]: quench free | retention of fluorescence of a fluorescent protein [1]: allowing retention of fluorescence of a fluorescent protein | pH (Table 3): 6.7 | OD400 ([7]; Table 3): 0.052 | RI [3, 11]: 1.5002
